Source: patent publication US9326960B2, “Composition for preventing or treating eye diseases, containing S-allyl-L-cysteine as active ingredient, and pharmaceutical formulation containing same” (PHARMAKING CO., LTD., priority 2012, dated 2016)

Experiments:
[1] = Suppressive activity against blue light-induced oxidation of A2E (cell-free, absorbance); details: 20 μM A2E in PBS, blue light ca. 430 nm, compared to non-treated
Protocol: Assay of S-Allyl-Cysteine for Suppressive Activity Against Blue Light-Induced Oxidation of A2E S-Allyl-cysteine was assayed for the ability to suppress the blue light-induced oxidation of A2E. First, 100 μM A2E was diluted to 20 μM in phosphate buffered saline (PBS), and 200 μl of the dilution was placed in each well of 96-well plates. Then, a negative control, a positive control (lutein 20 μM), or predetermined concentrations of S-allyl-cysteine (1, 10, 100 μM) were added to the dilution, and mixed by pipetting. An LED lamp emitting blue light with a central wavelength of ca. 430 nm was operated above the microplates to induce photo-oxidation until the A2E absorbance was reduced by half. Absorbance was read on an ELISA before and after the induction of photo-oxidation. The measurements were applied to an A2E standard curve to obtain concentrations of A2E, and the difference in concentration before and after exposure to blue light was used to obtain the concentration of oxidized A2E. From the data, the inhibitory activity of the sample against A2E photo-oxidation was calculated according to the following Mathematical Formula 1. In Formula 1, Abs. means absorbance. [formula] A=Abs. of A2E−Abs. of A2E+blue light B={Abs. of A2E+sample)−Abs. of sample}−{(Abs. of A2E+sample+blue light)−(Abs. of sample−Abs. of sample+blue light)} In order to evaluate the inhibitory activity of S-allyl-L-cysteine against A2E photooxidation, concentrations of oxidized A2E were measured after exposure to blue radiation as described in Experimental Example 1, and the results are depicted in FIG. 1.

[2] = test system: Human retinal pigment epithelial cell line (ARPE-19); assay: Cytoprotective activity against blue light-induced apoptosis of A2E-accumulated ARPE-19 cells (MTT assay); type: cell-based; details: A2E-accumulated ARPE-19 exposed to blue light; for increase of cell viability: compared to the negative control
Description: The retinal pigment cell line used in experiments and analyses of the present invention arose from a retinal pigment epithelial cell line (ARPE-19: ATCC no. CRL-2302) purchased from the ATCC (American Type Culture Collection, Manassas Va.), and was maintained by passage as described in document (Sparrow, J. R. et al., A2E, alipofuscin fluorophore, in human retinal pigmented epithelial cells in culture. Invest Ophthalmol Vis Sci 1999, 40(12), 2988-95).
Briefly, the retinal pigment cell line was cultured in Dulbecco's modified Eagle's medium (DMEM, Gibco, USA) supplemented with antibiotics (Gibco, USA) including 100 U/ml penicillin, […] streptomycin, and amphotericin B, and 10% fetal bovine serum (Hyclone, USA) at 37° C. under 5% CO2 conditions. The cells were allowed to adhere to the bottom of the culture plate, and cultured, with passage by treatment with a mixture of 1:4 trypsin:10% fetal bovine serum (Gibco, USA)-supplemented medium upon confluence.
For use in experiments, the cells were seeded at a density of 5×10^4 cells/well into 6-well plates.
Cytoprotective Activity of S-Allyl-Cysteine Against Blue Light-Induced Apoptosis of A2E-Accumulated Human Retinal Pigment Epithelial Cell Line CARPE-19)
Human retinal pigment cell line (ARPE-19) was seeded at a density of 5×10^4 cells/well into 96-well plates, and incubated with 20 μM A2E for 7 days to accumulate A2E. Then, the cells were treated with a negative control, a positive control (lutein: 20 μM), or predetermined concentrations of S-allyl-cysteine (1, 10, 100 μM) before exposure to blue light as described above.
Thereafter, cell viability was measured using 3-(4,5-dimethylthiazol-2-yl)-2,5-diphenyltetrazoliumbromide (MTT) assay. An MTT assay is a standard colorimetric assay for assessing cell viability, usually in a lab. Generally, viable cells are counted using a hemocytometer, or by measuring optical density; however, this method requires too much time and labor for large numbers of cells, and is apt to yield inaccurate results. As an alternative, the MTT assay is designed such that the yellow substrate tetrazolium MTT is reduced by metabolically active cells, in part by the action of mitochondrial dehydrogenase enzymes, into purple formazan that can be solubilized and quantified by spectrophotometric means. This assay can analyze the proliferation behavior of large numbers of cells rapidly and accurately. […] More viable cells produce a greater amount of formazan crystals, recoding higher absorbance.
According to the MTT assay (Sigma-Aldrich Inc., St. Louis, Mo., U.S.A.), DMEM containing 0.5 mg/ml MTT was added to each well and incubated at 37° C. for 2 hrs in an incubator under dark conditions. […]

Row | SMILES | decrease of concentration of oxidized A2E ([1]; 1 μM S-allyl-cysteine) | decrease of concentration of oxidized A2E ([1]; 10 μM S-allyl-cysteine) | decrease of concentration of oxidized A2E ([1]; 100 μM S-allyl-cysteine) | increase of cell viability ([2]; 1 μM) | increase of cell viability ([2]; 10 μM) | increase of cell viability ([2]; 100 μM) | cell viability versus negative control (result in words) ([2]; lutein 20 μM)
1 | C=CCSC[C@H](N)C(=O)O [S-allyl-cysteine, S-allyl-L-cysteine] | 20% | 32% | 41% | 63% | 134% | 167% | –
2 | CC1=C[C@H](O)CC(C)(C)[C@H]1/C=C/C(C)=C/C=C/C(C)=C/C=C/C=C(C)/C=C/C=C(C)/C=C/C1=C(C)C[C@@H](O)CC1(C)C [positive control, lutein, reference compound] | – | – | – | – | – | – | significant difference in cell viability
